Measurements as given in US9347934B2, “Assays for identifying compounds that modulate bitter taste” (CHROMOCELL CORPORATION, priority 2011, dated 2016).

Columns and labels:
Format in all cases: cell-based
[1] = target: T1, TAS2R60 (Homo sapiens, UniProt P59551); assay: Calcium fluorescence functional assay, TAS2R60 cell line; conditions: for TAS2R60 bitter taste receptor activity (changes in intracellular calcium): 20 mM tastant, cell line expressing human TAS2R60 and mouse Gα15
T1 construct: expressed in transfected cells
T1 sequence (P59551 1-318): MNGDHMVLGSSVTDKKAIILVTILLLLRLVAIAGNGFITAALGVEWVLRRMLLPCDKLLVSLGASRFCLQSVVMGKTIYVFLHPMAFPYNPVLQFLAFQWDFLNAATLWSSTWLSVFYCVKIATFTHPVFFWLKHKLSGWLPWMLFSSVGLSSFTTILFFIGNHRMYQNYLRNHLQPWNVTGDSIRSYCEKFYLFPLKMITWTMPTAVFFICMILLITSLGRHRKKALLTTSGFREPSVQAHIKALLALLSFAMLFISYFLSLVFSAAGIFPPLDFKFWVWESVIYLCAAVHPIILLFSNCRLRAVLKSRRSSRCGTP
Procedure: (§1) Accordingly, each cell line of the panel expressed a human bitter taste receptor and mouse Gα15 signaling protein.
(§2) Probenecid was not included in the load solution.
(§3) After dye loading, cell plates were placed in a fluorescent plate reader (e.g., FDSS6000 (Hamamatsu, Japan)) and receptor stimulation was measured by adding 50 ul of 3× concentrated ligand/agonist stock. Fluorescence was monitored continuously for 10 s before agonist addition and for 100-250 s after stimulation with agonist.
(§4) Receptor Activation is defined as follows: % Activation=[((Maximum signal fluorescence−Minimum signal fluorescence)−(Maximum control fluorescence−Minimum control fluorescence))/(Maximum buffer fluorescence−Minimum buffer fluorescence)]*100 Functional Response=[(Maximum signal fluorescence−Minimum signal fluorescence)−(Maximum control fluorescence−Minimum control fluorescence)] • Signal Fluorescence: refers to the change in fluorescence seen with addition of ligand • Control fluorescence: refers to the change in fluorescence seen with addition of buffer (negative control) • Calcium signals from ligand and control were normalized to the basal fluorescence of the cells prior to the stimulation.
(§5) A concentration analysis was performed and EC50 values were calculated by nonlinear regression using the formula: Y=Bottom+(Top-Bottom)/(1+10^((Log EC50-X)*Hill Slope)), X=log of dose or concentration, Y=Response (increasing as X increases), Top=maximum signal, Bottom=minimum signal.

[2] = target: T2, TAS2R7 (Homo sapiens, UniProt Q9NYW3); assay: Calcium fluorescence functional assay, TAS2R7 cell line; conditions: 20 mM tastant; cell line expressing human TAS2R7 and mouse Gα15
T2 construct: expressed in transfected cells
T2 sequence (Q9NYW3 1-318): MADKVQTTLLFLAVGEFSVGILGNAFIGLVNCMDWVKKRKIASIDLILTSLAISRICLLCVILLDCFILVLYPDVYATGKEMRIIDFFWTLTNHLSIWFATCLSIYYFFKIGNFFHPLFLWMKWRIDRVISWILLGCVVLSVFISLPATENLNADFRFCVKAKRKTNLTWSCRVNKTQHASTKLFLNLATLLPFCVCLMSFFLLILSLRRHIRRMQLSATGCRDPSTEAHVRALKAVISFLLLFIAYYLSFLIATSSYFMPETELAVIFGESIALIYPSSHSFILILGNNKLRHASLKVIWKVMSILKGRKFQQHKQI
Procedure: as §1, §2, §3, §4, §5

[3] = target: T3, TAS2R55 (Homo sapiens, UniProt Q7RTR8); assay: Calcium fluorescence functional assay, TAS2R55 cell line; conditions: 20 mM tastant; cell line expressing human TAS2R55 and mouse Gα15
T3 construct: expressed in transfected cells
T3 sequence (Q7RTR8 1-314): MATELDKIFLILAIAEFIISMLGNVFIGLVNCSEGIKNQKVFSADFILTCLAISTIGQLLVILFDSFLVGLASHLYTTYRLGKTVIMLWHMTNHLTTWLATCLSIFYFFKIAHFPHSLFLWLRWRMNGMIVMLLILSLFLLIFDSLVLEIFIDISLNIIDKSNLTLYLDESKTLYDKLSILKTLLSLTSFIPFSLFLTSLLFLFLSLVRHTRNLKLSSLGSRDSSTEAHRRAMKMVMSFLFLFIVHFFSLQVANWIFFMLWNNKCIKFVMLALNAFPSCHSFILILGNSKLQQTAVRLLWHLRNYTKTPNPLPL
Procedure: as §1, §2, §3, §4, §5

[4] = target: T4, TAS2R50 (Homo sapiens, UniProt P59544); assay: Calcium fluorescence functional assay, TAS2R50 cell line; conditions: 20 mM tastant; cell line expressing human TAS2R50 and mouse Gα15
T4 construct: expressed in transfected cells
T4 sequence (P59544 1-299): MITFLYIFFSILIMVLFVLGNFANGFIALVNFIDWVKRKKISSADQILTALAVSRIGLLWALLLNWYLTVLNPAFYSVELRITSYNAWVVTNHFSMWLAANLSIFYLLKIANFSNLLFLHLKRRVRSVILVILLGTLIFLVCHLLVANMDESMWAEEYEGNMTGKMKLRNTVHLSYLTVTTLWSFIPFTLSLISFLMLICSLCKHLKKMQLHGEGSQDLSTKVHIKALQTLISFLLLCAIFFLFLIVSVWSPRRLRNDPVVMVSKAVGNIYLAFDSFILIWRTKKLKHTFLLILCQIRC
Procedure: as §1, §2, §3, §4, §5

[5] = target: T5, TAS2R47 (Homo sapiens, UniProt P59541); assay: Calcium fluorescence functional assay, TAS2R47 cell line; conditions: 20 mM tastant; cell line expressing human TAS2R47 and mouse Gα15
T5 construct: expressed in transfected cells
T5 sequence (P59541 1-319): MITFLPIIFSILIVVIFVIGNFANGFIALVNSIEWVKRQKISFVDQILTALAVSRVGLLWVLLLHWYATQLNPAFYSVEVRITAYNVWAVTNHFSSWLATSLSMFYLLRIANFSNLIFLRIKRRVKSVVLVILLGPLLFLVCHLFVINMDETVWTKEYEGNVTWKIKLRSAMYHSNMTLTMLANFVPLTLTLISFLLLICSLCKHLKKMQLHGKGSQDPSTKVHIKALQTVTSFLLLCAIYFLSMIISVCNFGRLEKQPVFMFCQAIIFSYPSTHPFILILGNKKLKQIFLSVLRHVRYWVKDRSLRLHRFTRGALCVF
Procedure: as §1, §2, §3, §4, §5

[6] = target: T6, TAS2R1 (Homo sapiens, UniProt Q9NYW7); assay: Calcium fluorescence functional assay, TAS2R1 cell line; conditions: 20 mM tastant; cell line expressing human TAS2R1 and mouse Gα15
T6 construct: expressed in transfected cells
T6 sequence (Q9NYW7 1-299): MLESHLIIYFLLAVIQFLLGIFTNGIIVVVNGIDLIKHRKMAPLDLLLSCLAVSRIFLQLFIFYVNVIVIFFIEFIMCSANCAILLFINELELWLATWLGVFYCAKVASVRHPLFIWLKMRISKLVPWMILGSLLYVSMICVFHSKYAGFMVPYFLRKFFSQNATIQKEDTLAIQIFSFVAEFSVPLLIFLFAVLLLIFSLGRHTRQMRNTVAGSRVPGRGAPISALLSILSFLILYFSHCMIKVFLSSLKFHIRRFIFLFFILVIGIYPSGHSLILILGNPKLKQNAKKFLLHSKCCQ
Procedure: as §1, §2, §3, §4, §5

Compound	TAS2R60 bitter taste receptor activity (changes in intracellular calcium) [1]	TAS2R7 bitter taste receptor activity (changes in intracellular calcium) [2]	TAS2R55 bitter taste receptor activity (changes in intracellular calcium) [3]	TAS2R50 bitter taste receptor activity (changes in intracellular calcium) [4]	TAS2R47 bitter taste receptor activity (changes in intracellular calcium) [5]	TAS2R1 bitter taste receptor activity (changes in intracellular calcium) [6]	EC50 ([1]; increasing concentrations of KCl, TAS2R60 cell line (FIG. 3), read-out: EC50 value, activation of TAS2R60)
CC1=CC(=O)NS(=O)(=O)O1 [Acesulfame K]	did not induce	did not induce	did not induce	did not induce	did not induce	induced	–
[Cl-].[K+] [KCl, potassium chloride]	induced	did not induce	did not induce	did not induce	did not induce	did not induce	5 to 15 mM
CC(O)C(=O)[O-].[K+] (stereo not shown) [Potassium lactate, potassium lactate]	induced	did not induce	did not induce	did not induce	did not induce	did not induce	–
